Data: patent publication EP3838286B1, “ANTIMICROBIAL PEPTIDE FROM POLISTES GALLICUS VENOM AND ITS ANALOGS” (Latoxan, priority 2019, dated 2021)
In brackets after ≈: the same amount, converted by molar mass. Read-outs that look alike come from different tables or passages of the source. Square brackets hold non-standard residues; d marks the D form. Ends that are not written are not given here. Peptide text beside a SMILES is read from it.

Legend:
human erythrocytes = experiment: Hemolytic activity assay; format: cell-based
Method: The hemolytic activity of each peptide was determined by the leakage of hemoglobin from human erythrocytes (obtained from Divbioscience, NL) as previously described (Oyama et al., 2017 Biofilms Microbiomes, Dec 1;3:33).
Briefly, human erythrocytes were washed 3 times with phosphate buffer saline (PBS) and concentrated using centrifugation at 800 g for 5 min. Human erythrocytes were then resuspended in PBS at a final concentration of 8 %. 100 µl of human erythrocytes were then added per well of sterile 96 well microplate already containing 15 µl of serially diluted antimicrobials (1:2 in distilled water). After 1 h at 37°C, the microplate was centrifuged at 800 g for 5 min. 100 µl were then carefully collected and transferred to a new 96 well microplate and OD was measured at 405 nm. Hemolysis caused by peptides was expressed as percentage of hemolysis; Triton-X100 at 0.1 % (v:v) was used as positive control and gave 100 % hemolysis. Hemolysis rate was determined as below: Hemolysis rate (%) = (A−A2)/(A1−A2) × 100% [formula] where A is the absorbance of indicator mixtures with different factors, A1 and A2 are the positive control, and the negative control, respectively.

[1] = system: B. subtilis (Nisin-resistant)
[2] = Cytotoxicity assay (resazurin); format: cell-based; settings: human
Method: Normal human cells used were BEAS-2B (ATCC CRL-9609), IMR-90 (ATCC CCL-186) and Human Umbilical Vein Endothelial Cells (HUVEC) (from Sigma-Aldrich) corresponding respectively to human normal lung epithelial, normal lung fibroblast cells and human normal endothelial cells. All cells except HUVEC cells were cultured in Dulbecco's modified essential medium (DMEM) supplemented with 10% fetal calf serum (FCS), 1% L-glutamine and 1% antibiotics (all from Invitrogen). HUVEC cells were cultured in specific endothelial media (from Sigma Aldrich). Cells were seeded onto […] maintained in a 5% CO2 incubator at 37 °C. Cells grown on 25 cm^2 flasks were detached using trypsin-EDTA solution (from Thermofisher), counted using Mallassez counting chamber and seeded into 96-well cell culture plates (Greiner bio-one) at approximately 10,000 cells per well. The cells were left to grow for 48-72 h at 37 °C in a 5% CO2 incubator until they reached confluence. Plates were then aspirated and increasing concentrations of peptides diluted in culture media were added to the cells for 48 h at 37 °C in a 5% CO2 incubator. At the end of the incubation, wells were emptied and cell viability was evaluated using Resazurin based in vitro toxicity assay kit (from Sigma-Aldrich) following manufacturer's instructions. Briefly, Resazurin stock solution was diluted 1:10 in sterile PBS containing calcium and magnesium (PBS, pH 7.4) and empty wells were filled with 100 µL of the diluted solution. After 4 h incubation at 37 °C, fluorescence intensity was measured using microplate reader (Synergy Mx, Biotek) with an excitation wavelength of 530 nm and an emission wavelength of 590 nm. The fluorescence values were normalized by the controls (buffer treated cells) and expressed as percent viability. The IC50 values of peptides on cell viability (i.e. the concentration of derivative causing a reduction of 50% of cell viability) were determined using GraphPad® Prism 7 software. t-Test and two way ANOVA analyses were used to address the significant differences between mean values with significance set at p < 0.05.

M. smegmatis = settings: 72 h
[3] = BEAS-2B normal lung epithelial cells, normal lung epithelium, read-out: Cytotoxicity IC50 (µM) BEAS
[4] = HUVEC (human umbilical vein endothelial cells), normal endothelium, read-out: Cytotoxicity IC50 (µM) HUVEC
[5] = IMR-90 normal lung fibroblast cells, read-out: Cytotoxicity IC50 (µM) IMR90

## LKAIKKLL-NH2 [L2L9*]
E. coli
  MIC (µM) E. coli: 100 µM
P. aeruginosa
  MIC (µM) P. aeruginosa: 25 µM

## RLLGLWLW-NH2 [LTX-gallicune-2 (R1W8)]
Human erythrocytes; human erythrocytes, 50% lysis
  MHC50: 225 µM
Human erythrocytes; human erythrocytes, 100% lysis
  MHC100: 1000 µM
Human erythrocytes; human erythrocytes, Fig 3
  times less toxic (hemotoxic) than Gallicus-CP: 20 times

## ILSAILGLL-NH2 [Peptides I1L9]
B. subtilis
  MIC (µM) B. subtilis: 100 µM
S. aureus
  MIC (µM) S. aureus: 100 µM

## ILKAIKKLLK-NH2 [I1K10*]
Human erythrocytes; highest concentration tested
  hemotoxicity: no toxicity towards red blood cells up to: > 10 mM

## CC[C@H](C)[C@H](NC(=O)CN)C(=O)NCC(=O)N[C@@H](C)C(=O)N[C@H](C(=O)N[C@@H](CC(C)C)C(=O)N[C@@H](CCCCN)C(=O)N[C@H](C(=O)N[C@@H](CC(C)C)C(=O)N[C@H](C(=O)N[C@H](C(=O)NCC(=O)N[C@@H](CC(C)C)C(=O)N1CCC[C@H]1C(=O)N[C@@H](C)C(=O)N[C@@H](CC(C)C)C(=O)N[C@H](C(=O)N[C@@H](CO)C(=O)N[C@@H](Cc1c[nH]c2ccccc12)C(=O)N[C@H](C(=O)N[C@@H](CCCCN)C(=O)N[C@@H](CCCNC(=N)N)C(=O)N[C@@H](CCCCN)C(=O)N[C@@H](CCCNC(=N)N)C(=O)N[C@@H](CCC(N)=O)C(=O)N[C@@H](CCC(N)=O)C(N)=O)[C@@H](C)CC)[C@@H](C)CC)[C@@H](C)O)[C@@H](C)O)C(C)C)C(C)C [Melittine, Melittin, reference compound]
B. subtilis
  MIC against B. subtilis: 1.56 µM (≈ 4.44 µg/mL)

## KLLGLILI-NH2 [K1I8]
E. coli
  MIC (µM) E. coli: 50 µM
P. aeruginosa; Table 3, n=4
  MIC (µM) P. aeruginosa: / (« / » means MIC > 100µM)
S. aureus
  MIC (µM) S. aureus: 25 µM

## LNKLLGLIASLI-NH2 [L12I1]
P. aeruginosa
  MIC (µM) P. aeruginosa: 50 µM

## CC[C@@H](C)[C@@H](N)C(=O)N[C@H](CC(C)C)C(=O)N[C@H](CO)C(=O)N[C@H](C)C(=O)N[C@@H](C(=O)N[C@H](CC(C)C)C(=O)NCC(=O)N[C@H](CC(C)C)C(=O)N[C@H](CC(C)C)C(=O)N[C@H](CCCCN)C(=O)N[C@H](CC(N)=O)C(=O)N[C@H](CC(C)C)C(N)=O)[C@H](C)CC [(i1I12)enantio, ilsailgllknl] (H-[dI][dL][dS][dA][dI][dL]G[dL][dL][dK][dN][dL]-NH2)
E. coli
  MIC (µM) E. coli: 100 µM (≈ 127 µg/mL)
P. aeruginosa
  MIC (µM) P. aeruginosa: 100 µM (≈ 127 µg/mL)
B. subtilis
  MIC (µM) B. subtilis: 3.13 µM (≈ 3.96 µg/mL)
S. aureus
  MIC (µM) S. aureus: 6.25 µM (≈ 7.92 µg/mL)

## ILKAIKK-NH2 [I1K7*, ILKAIKK]
E. coli
  MIC (µM) E. coli: 100 µM
P. aeruginosa
  MIC (µM) P. aeruginosa: 100 µM
S. aureus; Table 4, n=4
  MIC (µM) S. aureus: / (« / » means MIC > 100µM)
A.baumani
  MIC (µM) A.baumani: 100 µM

## LSAILGLLK-NH2 [Peptides L2K10]
B. subtilis
  MIC (µM) B. subtilis: 100 µM

## Ac-IKAIKKLLKN-NH2 [Ac I1N10*]
E. coli
  MIC (µM) E. coli: 100 µM
P. aeruginosa
  MIC (µM) P. aeruginosa: 50 µM
A.baumani
  MIC (µM) A.baumani: >100 µM

## ILKAIKKLLKN-NH2 [I1N11]
S. enterica
  MBC (µM) S. enterica: 50 µM
  MIC (µM) S. enterica: 100 µM
[1]
  MBC (µM) B. subtilis (Nisin-resistant): 12.5 µM
  MIC (µM) B. subtilis (Nisin-resistant): 12.5 µM
P. aeruginosa
  MBC (µM) P. aeruginosa: 6.25 µM
  MIC (µM) P. aeruginosa: 6.25 µM
  MIC PA: 6.25 µM
C. farmeri
  MBC (µM) C. farmeri: 12.5 µM
  MIC (µM) C. farmeri: 12.5 µM
C. rodentium
  MBC (µM) C. rodentium: 50 µM
  MIC (µM) C. rodentium: 50 µM
L. lactis
  MBC (µM) L. lactis: 3.12 µM
  MIC (µM) L. lactis: 1.5 µM
H. pylori
  MBC (µM) H. pylori: 100 µM
  MIC (µM) H. pylori: 100 µM
P. aeruginosa 01
  MBC (µM) P. aeruginosa 01: 50 µM
  MIC (µM) P. aeruginosa 01: 25 µM
A. gandavensis
  MBC (µM) A. gandavensis: 3.12 µM
  MIC (µM) A. gandavensis: 3.12 µM
V. alginolyticus
  MBC (µM) V. alginolyticus: 0.78 µM
  MIC (µM) V. alginolyticus: 0.78 µM
[2]; [3]
  CC50 at 48 h: 821 µM
[2]; [4]
  CC50 at 48 h: 826 µM
[2]; [5]
  CC50 at 48 h: 892 µM
E. coli EHEC K88
  MBC (µM) E. coli EHEC K88: >100 µM
  MIC (µM) E. coli EHEC K88: 100 µM
M. smegmatis
  MIC (µM) M. smegmatis: 25 µM
S. flexneri
  MBC (µM) S. flexneri: 50 µM
  MIC (µM) S. flexneri: 50 µM
P. aeruginosa FQR
  MBC (µM) P. aeruginosa FQR: 100 µM
  MIC (µM) P. aeruginosa FQR: 25 µM

## CC[C@@H](C)[C@@H](N)C(=O)N[C@@H](CC(C)C)C(=O)N[C@@H](CCCCN)C(=O)N[C@@H](C)C(=O)N[C@H](C(=O)N[C@@H](CCCCN)C(=O)N[C@@H](CCCCN)C(=O)N[C@@H](CC(C)C)C(=O)N[C@@H](CC(C)C)C(=O)N[C@H](CCCCN)C(N)=O)[C@@H](C)CC [i1k10*] (H-[dI]LKAIKKLL[dK]-NH2)
S. enterica
  MBC (µM) S. enterica: 12.5 µM (≈ 14.6 µg/mL)
  MIC (µM) S. enterica: 12.5 µM (≈ 14.6 µg/mL)
E. coli
  MIC (µM) E. coli: 50 µM (≈ 58.3 µg/mL)
[1]
  MBC (µM) B. subtilis (Nisin-resistant): 3.12 µM (≈ 3.64 µg/mL)
  MIC (µM) B. subtilis (Nisin-resistant): 3.12 µM (≈ 3.64 µg/mL)
P. aeruginosa
  MBC (µM) P. aeruginosa: 1.5 µM (≈ 1.75 µg/mL)
  MIC PA: 0.78 µM (≈ 0.91 µg/mL)
C. farmeri
  MBC (µM) C. farmeri: 3.12 µM (≈ 3.64 µg/mL)
  MIC (µM) C. farmeri: 3.12 µM (≈ 3.64 µg/mL)
C. rodentium
  MBC (µM) C. rodentium: 12.5 µM (≈ 14.6 µg/mL)
  MIC (µM) C. rodentium: 12.5 µM (≈ 14.6 µg/mL)
L. lactis
  MBC (µM) L. lactis: 1.56 µM (≈ 1.82 µg/mL)
  MIC (µM) L. lactis: 0.78 µM (≈ 0.91 µg/mL)
H. pylori
  MBC (µM) H. pylori: 12.5 µM (≈ 14.6 µg/mL)
  MIC (µM) H. pylori: 12.5 µM (≈ 14.6 µg/mL)
P. aeruginosa 01
  MBC (µM) P. aeruginosa 01: 12.5 µM (≈ 14.6 µg/mL)
  MIC (µM) P. aeruginosa 01: 3.125 µM (≈ 3.65 µg/mL)
A. gandavensis
  MBC (µM) A. gandavensis: 0.78 µM (≈ 0.91 µg/mL)
  MIC (µM) A. gandavensis: 0.78 µM (≈ 0.91 µg/mL)
A.baumani
  MIC (µM) A.baumani: 100 µM (≈ 117 µg/mL)
V. alginolyticus
  MBC (µM) V. alginolyticus: 0.78 µM (≈ 0.91 µg/mL)
  MIC (µM) V. alginolyticus: 0.78 µM (≈ 0.91 µg/mL)
[2]; [3]
  CC50 at 48 h: 867 µM
[2]; [4]
  CC50 at 48 h: 814 µM
[2]; [5]
  CC50 at 48 h: 783 µM
E. coli EHEC K88
  MBC (µM) E. coli EHEC K88: 6.25 µM (≈ 7.29 µg/mL)
  MIC (µM) E. coli EHEC K88: 6.25 to 12.5 µM
M. smegmatis
  MIC (µM) M. smegmatis: 12.5 µM (≈ 14.6 µg/mL)
S. flexneri
  MBC (µM) S. flexneri: 6.25 µM (≈ 7.29 µg/mL)
  MIC (µM) S. flexneri: 3.12 to 6.25 µM
P. aeruginosa FQR
  MBC (µM) P. aeruginosa FQR: 25 µM (≈ 29.2 µg/mL)
  MIC (µM) P. aeruginosa FQR: 3.12 to 6.25 µM
